The text below walks through data of ChEMBL document CHEMBL1134898, “Synthesis and biological evaluation of novel D-2'-azido-2',3'-dideoxyarabinofuranosyl-4'-thiopyrimidines and purines” (Bioorg Med Chem Lett, 2002).

One assay has as its system Human alphaherpesvirus 2. The experiment in a line: Compound was tested for antiviral activity against HSV-2. It counts as functional, organism-based.
A further assay deals with Human alphaherpesvirus 1. Nature of the assay: Compound was tested for antiviral activity against HSV-1. It counts as functional, organism-based.
Assay [1] relates to MT4. Nature of the assay: Cytotoxicity indicative of 50% survival concentration in virus-uninfected MT-4 cells. It counts as functional. As to conditions: Homo sapiens.
The test system of assay [2] is MT4. Nature of the assay: Compound was tested for antiviral activity indicative of 50% cytopathic concentration in virus (HIV-1) infected MT-4 cells. It counts as functional, cell-based. Particulars: Homo sapiens.
The subject of assay [3] is MT4. Nature of the assay: Cytotoxicity indicative of 50% survival concentration in virus -uninfected MT-4 cells. It counts as functional. Particulars: Homo sapiens.
Assay [4] relates to MT4. Nature of the assay: Cytotoxicity indicative of 50% survival concentration in HSV-1-uninfected MT-4 cells. It counts as functional. Particulars: Homo sapiens.
Assay [5] has as its system MT4. The experiment in a line: Cytotoxicity indicative of 50% survival concentration in HSV-2-uninfected MT-4 cells. It counts as functional. As to conditions: Homo sapiens.

In brackets after ≈: the same amount, converted by molar mass.

On to `[N-]=[N+]=NC1C[C@@H](CO)S[C@@H]1n1ccc(N)nc1=O` (stereo not given in full), for which the concentration for a half-maximal effect (EC50) in the assay with Human alphaherpesvirus 2, with Human alphaherpesvirus 1 and with MT4 [2] was above 100 µg/mL each time. This compound also registered a cytotoxic concentration (CC50) in the assay on MT4 [1] above 100 µg/mL.
For the compound `[N-]=[N+]=N[C@H]1C[C@@H](CO)S[C@H]1n1ccc(N)nc1=O`, the EC50 was above 100 µg/mL in the assay on Human alphaherpesvirus 2, above 100 µg/mL with Human alphaherpesvirus 1 and above 41.7 µg/mL in the assay with MT4 [2]. This compound displayed a half-maximal cytotoxic concentration (CC50) in the assay with MT4 [3] of 41.7 µg/mL (≈ 155 µM).
Take `[N-]=[N+]=N[C@H]1C[C@@H](CO)S[C@@H]1n1cnc2c(N)ncnc21`: the EC50 in the assay with Human alphaherpesvirus 2 was above 100 µg/mL; in the assay with Human alphaherpesvirus 1, above 100 µg/mL; in the assay on MT4 [2] it was above 17.3 µg/mL. For the same compound, in the assay with MT4 [1], half-maximal cytotoxicity (CC50) was put at 17.3 µg/mL (≈ 59.2 µM).
On to `[N-]=[N+]=N[C@H]1C[C@@H](CO)S[C@H]1n1cnc2c(N)ncnc21`, for which the EC50 in the assay with Human alphaherpesvirus 2 is above 100 µg/mL; in the assay with Human alphaherpesvirus 1, above 100 µg/mL; in the assay with MT4 [2], above 66.6 µg/mL. Further, it took 66.6 µg/mL (≈ 228 µM) to reach half-maximal cytotoxicity with MT4 [1] (CC50).
In the case of `Cc1cn([C@H]2S[C@H](CO)C[C@@H]2N=[N+]=[N-])c(=O)[nH]c1=O`, the EC50 in the assay on Human alphaherpesvirus 2 is above 100 µg/mL; in the assay on Human alphaherpesvirus 1, above 100 µg/mL; with MT4 [2], above 63.5 µg/mL. The same compound yielded a CC50 in the assay on MT4 [1] of 63.5 µg/mL (≈ 224 µM).
For the compound `CNc1ncnc2c1ncn2[C@H]1S[C@H](CO)C[C@@H]1N=[N+]=[N-]`, the EC50 in the assay with Human alphaherpesvirus 2 was above 100 µg/mL; in the assay on Human alphaherpesvirus 1, above 100 µg/mL; in the assay with MT4 [2], above 61.5 µg/mL. This compound also showed a cytotoxic concentration (CC50) with MT4 [1] of 61.5 µg/mL (≈ 201 µM).
In the case of `Cc1cn([C@@H]2S[C@H](CO)C[C@@H]2N=[N+]=[N-])c(=O)[nH]c1=O`, the EC50 in the assay on Human alphaherpesvirus 2 is above 100 µg/mL; in the assay on Human alphaherpesvirus 1 it was above 100 µg/mL; with MT4 [2], above 56.5 µg/mL. The cytotoxic concentration (CC50) with MT4 [1] came out at 56.1 µg/mL (≈ 198 µM).
Regarding `CNc1ncnc2c1ncn2[C@@H]1SC(CO)C[C@@H]1N=[N+]=[N-]` (single isomer, unassigned), the values for the EC50 in the assay with Human alphaherpesvirus 2, in the assay with Human alphaherpesvirus 1 and with MT4 [2] were above 100 µg/mL, above 100 µg/mL and above 48.1 µg/mL, respectively. In the assay with MT4 [1], the midpoint of cytotoxicity, the CC50, lay at 48.1 µg/mL (≈ 157 µM).
Take `Nc1nc2c(ncn2COCCO)c(=O)[nH]1` [ACYCLOVIR]: the EC50 with Human alphaherpesvirus 2 stood at 0.88 µg/mL (≈ 3.91 µM); with Human alphaherpesvirus 1, 0.13 µg/mL (≈ 0.577 µM). Moreover, the half-maximal cytotoxic concentration (CC50) in the assay on MT4 [4] is above 76.6 µg/mL; in the assay on MT4 [5], above 11.4 µg/mL.
Regarding `Cc1cn([C@H]2C[C@H](N=[N+]=[N-])[C@@H](CO)O2)c(=O)[nH]c1=O` [ZIDOVUDINE], the EC50 was above 100 µg/mL in the assay with Human alphaherpesvirus 2, 0.52 µg/mL (≈ 1.95 µM) with Human alphaherpesvirus 1 and 0.0005 µg/mL (≈ 0.00187 µM) in the assay on MT4 [2]. Besides, it took 0.52 µg/mL (≈ 1.95 µM) to reach half-maximal cytotoxicity in the assay with MT4 [1] (CC50).
